Entries after “also recorded” stand apart in the source; their conditions may differ. Read-outs that look alike come from different tables or passages of the source. Square brackets hold non-standard residues; d marks the D form. Ends that are not written are not given here. Peptide text beside a SMILES is read from it.
B1: SPLUNC1-wt: wildtype version of SPLUNC1, a naturally secreted antimicrobial protein (protein, UniProt Q9NP55 20-256, looked up)
BPI fold-containing family A …: QFGGLPVPLDQTLPLNVNPALPLSPTGLAGSLTNALSNGLLSGGLLGILENLPLLDILKPGGGTSGGLLGGLLGKVTSVIPGLNNIIDIKVTDPQLLELGLVQSPDGHRLYVTIPLGIKLQVNTPLVGASLLRLAVKLDITAEILAVRDKQERIHLVLGDCTHSPGSLQISLLDGLGPLPIQGLLDSLTGILNKVLPELVQGNVCPLVNEVLRGLDITLVHDIVNMLIHGLQFVIKV

Key:
Hep2 epithelial cells = assay: Hep2 cytopathology in RSV plaque assay; assay type: cell-based; settings: 32 μM
Protocol: Using a standard plaque assay, RSV replication was quantified in permissive Hep2 epithelial cells in the presence or absence of various AMPs. RSV plaque assays were used to determine the minimum dose required to induce Hep2 cytopathology and maximum anti-viral effects. Experimental controls included Hep2 cells+/−RSV and Hep-2 cells with AMP only.
Hep2 control cells without the AMP were also plated. Both plates were infected with the same dilution of A2 RSV virus. There is extensive sloughing of cells treated with the peptide (top plate) as compared to cells which were not (bottom plate), FIG. 18.

[1] = In vivo pulmonary toxicity; design: species or system mouse
Protocol: Pulmonary toxicity was tested in mouse lung.

P. aeruginosa = assay: In vivo respiratory P. aeruginosa infection; settings: high dosage bacterial inoculation, FIG. 16
[2] = tested on: Klebsiella pneumonia MDR clinical isolates; assay type: cell-based
Protocol: (§1) The bactericidal activities were examined using standard bacterial culture media (MHB) without the inclusion of human blood.
(§2) Tables 3 and 4 provide the MIC data for the tested AMPs against a variety of infectious species. The following strains were tested: Enterococcus faecium MDR clinical isolates Ef 25153 and Ef 26125; methicillin-resistant Staphylococcus aureus (MRSA) clinical isolates USA300 and 150-10; Klebsiella pneumonia MDR clinical isolates C3, C5, A5, D7 and E6; and Pseudomonas aeruginosa MDR clinical isolates PA 82-8 and PA 129-5. […] Table 5 provides the data for the D-amino acid substituted AMPs and their bactericidal activities against various Klebsiella pneumonia multi-drug resistant (MDR) clinical isolates. All odd number Kp bacteria (isolated prior to colistin treatment; colistin sensitive) are paired with the corresponding even number Kp bacteria (isolated after colistin treatment; colistin resistant) from the same patient. O.D. readings represent the bacterial growth with a background reading of about 0.049+/−0.003.

[3] = tested on: Pseudomonas aeruginosa MDR clinical isolates; assay type: cell-based
Protocol: as §1, §2

[4] = tested on: Enterococcus faecium MDR clinical isolates; assay type: cell-based
Protocol: as §1, §2

[5] = tested on: methicillin-resistant Staphylococcus aureus (MRSA) clinical isolates; assay type: cell-based
Protocol: as §1, §2

[6] = tested on: P. aeruginosa lipopolysaccharide (LPS)-induced secretion of tumor necrosis factor (TNF) in Raw (264.7) Cells; assay: Neutralization of LPS-induced TNF secretion; assay type: cell-based; settings: 1 μg/ml LPS
Protocol: Anti-inflammatory activity is based on the determination of cytokine stimulation of major inflammatory (e.g. TNF) or anti-inflammatory (e.g., IL-10) cytokines. For in vitro studies, TNF is measured using culture medium from LPS-stimulated macrophage cultures in the presence or absence of peptide treatment. For in vivo studies, cytokine levels in bronchoalveolar lavage (BAL) fluid were quantified using the mouse cytokine multiplex panel assay (Milliplex; Millipore, Billerica, Mass.). The expressions of cytokines were analyzed using the Luminex assay system, based on manufacturer's instructions and our previous publication. Standard recombinant protein solution was used to generate a standard curve for each analyzed protein. Absolute cytokine concentrations were calculated from the standard curve for each cytokine.
A high dosage (1 μg/ml) of LPS was used to stimulate the TNF secretion in raw cells.

[7] = In vivo toxicity / maximum tolerated dose; design: species or system Mice (strain: Swiss Webster)
Protocol: The modified AMPs show a lower toxicity and higher maximum tolerated dosage (MTD) than WLBU2 (SEQ ID No. 26). The MTD for WLBU2 (SEQ ID No. 26) is 15 mg/kg, for Colistin is 10 mg/kg, and SEQ ID No. 15 is 30 mg/kg (FIG. 14A).
Mice (strain: Swiss Webster) were injected with SEQ ID No. 15 peptides intravenously (i.v.) or intraperitoneally (i.p.) at the concentrations indicated. […] Thus, the estimated maximum tolerated dose (MTD) is around 40-50 mpk (i.v.). On a similar setting of testing other AMPS, the MTD for WLBU2 is 15 mpk (i.v.) and 10 mpk (i.v.) for colistin.

[8] = tested on: primary Human bronchial epithelial (HBE) cells; assay: Toxicity to primary cells, tetrazolium-based viability assay; assay type: cell-based; settings: treated 2 h
Protocol: Anti-cancer activity of SEQ ID No. 26 and its D-amino acid modified enantiomer, SEQ ID. No. 34. SEQ ID. No. 34 was compared to SEQ ID No. 26 for selective anti-cancer activities using cancer cell lines of the respiratory system. See FIG. 22A for H460 (large cell lung cancer) and Calu-1 (non-small cell lung cancer) and FIG. 22B for primary Human bronchial epithelial (HBE) cells. The cells were grown to 80% confluence and then treated with each AMP for 2 h. Percent viability was examined using a tetrazolium-based assay assessing the mitochondrial integrity. […] No. 34; however SEQ ID. […] No. 34. Therefore, SEQ ID. […] No. 26.

S.A. ATCC49775 = assay: Antimicrobial activity of SPLUNC1 proteins (FIG. 2A); assay type: cell-based; settings: S.A. ATCC49775, FIG. 2A
Excerpt: (§3) The AMPs disclosed herein were derived from the naturally secreted antimicrobial protein SPLUNC1. […] FIG. 2C) illustrates the alpha helical structure of alpha4 (A4), the 30 residue sequence used as the template to design the disclosed AMPs listed in Table 2.

MRSA USA300 = assay: Antimicrobial activity of SPLUNC1 proteins (FIG. 2B); assay type: cell-based; settings: MRSA USA300, FIG. 2B
Excerpt: as §3

[9] = methicillin-resistant clinical isolates, 18 h

Molecule | cytopathology in Hep2 cells (Hep2 epithelial cells) | antimicrobial activity against respiratory P. aeruginosa infection (P. aeruginosa) | MIC A5 ([2]; 18 h) | MIC C3 ([2]; 18 h) | MIC D7 ([2]; 18 h) | MIC E6 ([2]; 18 h) | MIC PA82 82-8 ([3]; MDR clinical isolates, 18 h) | MIC PA 129-5 ([3]; MDR clinical isolates, 18 h) | MIC Ef 25153 ([4]; MDR clinical isolates, 18 h) | MIC Ef 26125 ([4]; MDR clinical isolates, 18 h) | MIC MRSA 150-10 [5, 9] | MIC MRSA USA300 [5, 9] | neutralizing LPS-induced TNF secretion [6] | also measured
CC(C)[C@@H](NC(=O)[C@H](Cc1c[nH]c2ccccc12)NC(=O)[C@H](CCCNC(=N)N)NC(=O)[C@H](CCCNC(=N)N)NC(=O)[C@H](NC(=O)[C@H](NC(=O)[C@H](CCCNC(=N)N)NC(=O)[C@H](NC(=O)[C@H](NC(=O)[C@H](CCCNC(=N)N)NC(=O)[C@H](CCCNC(=N)N)NC(=O)[C@H](Cc1c[nH]c2ccccc12)NC(=O)[C@H](NC(=O)[C@H](CCCNC(=N)N)NC(=O)[C@H](CCCNC(=N)N)NC(=O)[C@H](NC(=O)[C@H](CCCNC(=N)N)NC(=O)[C@H](CCCNC(=N)N)NC(=O)[C@H](NC(=O)[C@H](Cc1c[nH]c2ccccc12)NC(=O)[C@H](CCCNC(=N)N)NC(=O)[C@@H](N)CCCNC(=N)N)C(C)C)C(C)C)C(C)C)C(C)C)C(C)C)C(C)C)C(C)C)C(=O)N[C@@H](CCCNC(=N)N)C(=O)N[C@@H](CCCNC(=N)N)C(=O)O [SEQ ID No. 34] (H-RRW[dV]RR[dV]RR[dV]WRR[dV][dV]R[dV][dV]RRW[dV]RR-OH; N-terminus and C-terminus assumed) | caused cytopathology |  |  |  |  |  |  |  |  |  |  |  |  | recruitment of leukocytes (a measure of inflammation) ([1]; at four times the concentration of SEQ ID No. 26): significantly lower than SEQ ID No. 26; behaviour of mice after treatment ([1]; response to the hand grab): more active and responsive
LKKWWKKVKGLLGGLLGK [SEQ ID No. 19, LKKWWKKVKGLLGGLLGK] |  | excellent antimicrobial activity | <2 µM | <2 µM | <2 µM | <2 µM | 8 µM | <1 µM | <2 µM | <2 µM | <1 µM | <2 µM | good activity; also recorded: Display Neutralizing Activities | 
LKKWWKTVKGLLGGLLGKVTSVIK [SEQ ID No. 14] |  | excellent antimicrobial activity | >4 µM | <2 µM | <2 µM | <2 µM | <2 µM | <2 µM | <2 µM | <2 µM | <2 µM | <2 µM | good activity; also recorded: Display Neutralizing Activities | MIC C5 ([2]; 18 h): 4 µM
RRWVRRVRRVWRRVVRVVRRWVRR [SEQ ID No. 26, reference compound] | caused cytopathology |  |  |  |  |  |  |  |  |  |  |  |  | MTD ([7]; Swiss Webster, mouse, in vivo, FIG. 14A, read-out: maximum tolerated dosage (MTD)): 15 mg/kg; maximum tolerated dose (MTD) ([7]; i.v., Swiss Webster mice): 15 mpk; MIC A5 ([2]; isolate A5, Table 3): >8 µM; MIC C3 ([2]; isolate C3, Table 3): 16 µM; MIC C5 ([2]; isolate C5, Table 3): 16 µM; MIC D7 ([2]; isolate D7, Table 3): <4 µM; MIC E6 ([2]; isolate E6, Table 3): <4 µM; MIC PA 82-8 ([3]; isolate PA 82-8, Table 3): 4 µM; MIC PA 129-5 ([3]; isolate PA 129-5, Table 3): <4 µM; MIC Ef 25153 ([4]; isolate Ef 25153, Table 3): <4 µM; MIC Ef 26125 ([4]; isolate Ef 26125, Table 3): <4 µM; MIC MRSA 150-10 ([5]; isolate 150-10, Table 3): 8 µM; MIC MRSA USA300 ([5]; isolate USA300, Table 3): <4 µM; toxicity to primary HBE cells [8]: toxic to primary HBE cells
B1 |  |  |  |  |  |  |  |  |  |  |  |  |  | antimicrobial activity (S.A. ATCC49775): significant antimicrobial activity; antimicrobial activity (MRSA USA300): significant antimicrobial activity

From patent US11965006B2, “Antimicrobial and anti-cancer therapy” (UNIVERSITY OF PITTSBURGH—OF THE COMMONWEALTH SYSTEM OF …, priority 2016, dated 2024)
